The source of these data is patent publication US20250114286A1, “METHOD FOR STABILIZING CERAMIDE AND COSMETIC COMPOSITION COMPRISING STABILIZED CERAMIDE” (COSMECCA KOREA Co., Ltd., priority 2023, published 2025).

One test concerns AQP3. In words: Moisturizing efficacy: AQP3 mRNA expression by qRT-PCR in UVB-irradiated HDFa cells. Conditions: UVB 15 mJ/cm^2, positive control at 0.01%. The class given is cell-based, Human. As for the experimental part:
In order to confirm the moisturizing efficacy of ceramide and bioactive substance-containing nanoparticle capsule, the effect on AQP3 expression was evaluated. After inoculating Human dermal fibroblast (HDFa) cell lines, they were cultured at 37° C. for 24 hours under 5% CO2 in Fibroblast Basal Medium (Medium 106) containing 100 IU/mL penicillin and 100 μg/mL streptomycin. The medium of each well was removed and replaced with fresh serum-free medium. Each well was subjected to pretreatment for 4 hours by administering the samples corresponding to Example 1 and Comparative Examples 1 and 2 at each concentration. 15 mJ/cm^2 UVB was irradiated to each well plate by a UVB irradiation device (vilber loumet, France). The sample was treated with the diluted serum-free medium, and then further cultured for 24 hours. At this time, a negative control was treated with PBS, and a positive control was treated with Hyaluronic acid at 0.01%. After the cell culture was completed, the cells were lysed using Ribo Ex™ Total RNA Isolation Solution (GeneAll Biotechnology, Korea) and scraper, and then 0.2 mL chloroform (Sigma-Aldrich, USA) was added thereto to perform centrifugation (12,000 rpm, 4° C., 30 minutes). […]
In general terms: Real-time PCR tracks product formation cycle by cycle.

The nature of test [1]: DPPH radical scavenging activity test. Format: biochemical. As to conditions: positive control at 0.01%. The protocol: In order to confirm the anti-oxidation efficacy of ceramide and bioactive material-containing nanoparticle capsules, a DPPH radical scavenging activity test was conducted. The DPPH radical scavenging activity was measured by the reducing power of the sample relative to the DPPH radical. A 0.4 mM solution was prepared by dissolving DPPH (1,1-Diphenyl-2-picrylhydrazyl) reagent in ethanol. Then 100 μL of the solution of each sample corresponding to Example 1, Comparative Examples 1, and 2, or positive control BHT (Butylated hydroxyl toluene or 2,6-Di-tert-butyl-p-cresol) was dissolved in ethanol, was added to 100 μL of the 0.4 mM DPPH solution in a 96 well plate and mixed. At this time, ethanol was treated as a negative control, and after mixing, the mixture reacted at 37° C. for 30 minutes. Absorbance was measured at 517 nm using ELISA reader, and the DPPH radical scavenging ability (%) of the sample or BHT as a positive control was calculated using the following formula.
DPPH radical scavenging ability (%)={1−(absorbance of positive control or sample/absorbance of control)}×100
Background: Loss of DPPH colour is used to gauge radical scavenging.

For Hyaluronic acid, the “Relative AQP3 expression (% of control)” value in the test with AQP3 is given as 149.52 % of control. Regarding `Cc1cc(C(C)(C)C)c(O)c(C(C)(C)C)c1` [BHT, 2,6-Di-tert-butyl-p-cresol], the “DPPH radical scavenging ability (%)” value in test [1] came to 62.08%.
